In patent publication US11278563B2, “Rapid release pharmaceutical formulations containing algal cellulose” (priority 2016, dated 2022):

Legend:
[1] = Degree of drug crystallinity from weight normalized melting enthalpies (TGA heat flow); type: physicochemical
Procedure: TGA was conducted on a Mettler TG50 apparatus (10 K min^−1; 35° C. to 20° C. above the melting point of the drug) on 10-20 mg samples in aluminium crucibles under a nitrogen atmosphere (60 mL min^−1). Both normal and heated 10% mixtures were analysed and compared to the pure crystalline substance of corresponding drug content, i.e. 1-2 mg. The temperature in the furnace was continuously monitored, and the heat flow curves were collected both for heating and cooling phase to record melting or re-crystallization events.
The weight normalized enthalpies of melting observed in cellulose-drug mixtures were calculated using the STARe Excellence software (Mettler Toledo) and compared to the weight normalized enthalpy for the pure crystalline drug, to give a rough estimate of the degree of the drug crystallinity (“Crl”) as follows.
[formula] where ΔHmelt is weight normalised melting enthalpy of the drug in a specific cellulose-drug blend [in Joules/g] and ΔHdrug is the melting enthalpy of a pure crystalline drug [in Joules/g]. X-Ray Diffraction (XRD)

[2] = DSC melting enthalpy and degree of crystallinity of FFA in cellulose mixtures; type: physicochemical; conditions: degree of crystallinity of FFA from DSC melting enthalpy, about 10 wt % FFA, n = 3
Procedure: Thermal analysis was performed with TA instrument (Model Q-2000) on both cellulose-drug mixtures and pure substances. Samples were placed inside hermetically sealed aluminium crucibles with punctured lids, in order to avoid overpressure caused by water evaporation. An empty pan was used as a reference. The analysis was conducted in the temperature range from −40° C. to 150° C. with a heating rate of 10° C. min^−1. N2 gas, at a flow of 50 mL min^−1, was applied during analysis. Initially the samples were cooled from room temperature to −40° C., then heated to 150° C. and finally cooled to 25° C. again. All of the samples were stored at ambient conditions for 24 hours prior to DSC measurements. For the heated cellulose-FFA mixtures the heating conditions were 120° C. for 2 hours.
The measurements were performed in triplicate, and the estimated amount of drug in the mixtures was 10 wt %.

Question: What does the source list for `COc1ccc2cc([C@H](C)C(=O)O)ccc2c1` [NAP, naproxen]?
Answer: CrlNAP (%) ([1]; melting event): 100%; CrlNAP (%) ([1]; recrystallisation event of pure NAP (NAP recryst.)): 76%

Question: Which CrlFFA.% [2] does the source give for `O=C(O)c1ccccc1Nc1cccc(C(F)(F)F)c1` [FFA, flufenamic acid] here?
Answer: 100%

Question: For `CC(=O)[C@H]1CC[C@H]2[C@@H]3CCC4=CC(=O)CC[C@]4(C)[C@H]3CC[C@]12C` [PRO, progesterone], which “CrlPRO (%)” value ([1]; melting event) is on record?
Answer: 100%
